Values quoted from earlier work as cited in US8828415B2, “Microcapsules with acetylene carbamide-polyurea polymers and formulations thereof for controlled release” (priority 2006, dated 2014).

How the values were obtained:
[1] = for cancer (Ames test): MSDS of Sigma-Aldrich and CYTEC
mice = details: for 4 h

| SMILES | cancer (Ames test) [1] | cancer: CMR category ([1]; MSDS) | cancer: IARC classification ([1]; MSDS) | acute inhalation toxicity (LC50) (mice) | pulmonary sensitization in guinea pigs (guinea pigs) | affects respiratory system in humans at long term (3 y) (humans) |
| --- | --- | --- | --- | --- | --- | --- |
| Cc1ccc(N=C=O)cc1N=C=O [TDI, 2,4-toluenediisocyanate] | carcinogenic (Ames test) | CMR Cat. Carcinogen 3 | IARC carrcinogen 2B | 10 ppm for 4 h - mice | Yes | Yes |
| CC(C)(N=C=O)c1cccc(C(C)(C)N=C=O)c1 [TMXDI, alpha-, alpha-, alpha-, alpha-tetramethyl xylylene diisocyanate] | not carcinogenic | – | – | 27 ppm for 4 h - | no | no |
